# ChEMBL document CHEMBL1201862, “PubChem BioAssay data set” (2004)
# Activity calls are given as the source filed them.
# Experiments:
# [1] = target: T1, Leucine aminopeptidase (Plasmodium falciparum 3D7, UniProt Q8IL11); experiment: P. falciparum M17LAP inhibitors, primary screen, biochemical, fluorogenic H-Leu-NHMec substrate, 1536-well (AID 1619); format: functional
# T1 sequence (Q8IL11 whole entry): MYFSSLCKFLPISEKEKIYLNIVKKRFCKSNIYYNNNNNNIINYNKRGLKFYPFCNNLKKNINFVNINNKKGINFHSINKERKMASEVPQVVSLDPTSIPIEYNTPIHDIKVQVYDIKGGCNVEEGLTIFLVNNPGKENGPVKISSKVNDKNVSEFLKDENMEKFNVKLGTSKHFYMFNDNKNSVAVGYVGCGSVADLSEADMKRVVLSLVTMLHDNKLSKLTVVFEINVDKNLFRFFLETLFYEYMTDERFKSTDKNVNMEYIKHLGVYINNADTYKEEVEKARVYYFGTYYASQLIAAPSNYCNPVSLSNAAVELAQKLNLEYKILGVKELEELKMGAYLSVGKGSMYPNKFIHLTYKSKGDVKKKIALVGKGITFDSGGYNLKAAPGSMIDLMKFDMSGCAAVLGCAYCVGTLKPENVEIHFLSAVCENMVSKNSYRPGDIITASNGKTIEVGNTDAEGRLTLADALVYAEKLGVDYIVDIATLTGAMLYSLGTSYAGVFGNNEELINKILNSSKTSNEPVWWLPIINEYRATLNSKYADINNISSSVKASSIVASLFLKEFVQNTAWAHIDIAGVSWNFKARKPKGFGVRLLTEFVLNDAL
# [2] = target: T2, Carboxy-terminal domain RNA polymerase II polypeptide A small phosphatase 1 (Homo sapiens, UniProt Q9GZU7); experiment: inhibitors of CTDSP1, concentration-response testing, biochemical assay, absorbance-based, actives from ultra-high-throughput screening (AID 540297); format: functional
# T2 sequence (Q9GZU7 whole entry): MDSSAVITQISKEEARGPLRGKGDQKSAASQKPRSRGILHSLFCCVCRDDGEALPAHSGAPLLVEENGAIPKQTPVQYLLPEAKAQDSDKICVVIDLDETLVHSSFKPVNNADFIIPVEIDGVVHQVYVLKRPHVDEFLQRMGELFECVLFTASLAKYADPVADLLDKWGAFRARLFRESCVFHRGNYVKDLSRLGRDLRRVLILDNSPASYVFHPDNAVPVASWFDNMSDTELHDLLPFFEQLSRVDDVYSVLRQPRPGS
# [3] = intracellular Trypanosoma cruzi inhibitors in host cells – cell-based, plate reader, cherry-pick samples, set 3, dose response (AID 651818); format: functional;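 further: compounds incubated with infected cells for about four days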
# [4] = target: T3, Endoribonuclease toxin MazF (Escherichia coli K-12, UniProt P0AE70); experiment: fluorescent RNA oligo signal without MazF, dose response, counter-screen for MazEF activator project, biochemical, fluorescence, single-stranded RNase substrate (AID 588502); format: functional
# T3 sequence (P0AE70 whole entry): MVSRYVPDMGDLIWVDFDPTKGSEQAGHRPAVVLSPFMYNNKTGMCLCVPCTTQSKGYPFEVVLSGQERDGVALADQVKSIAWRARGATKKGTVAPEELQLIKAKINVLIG
# [5] = target: T3, Endoribonuclease toxin MazF; experiment: MazF toxin RNase activators, dose response, biochemical, fluorescence, single-stranded RNA substrate, uHTS hits (AID 588481); format: functional
# [6] = target: T4, RNA-binding protein pos-1 (Caenorhabditis elegans, UniProt G5EF15); experiment: inhibitors of POS-1/mex-3 RNA binding, dose response, biochemical, fluorescence polarization (AID 1964);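 further: purified POS-1 fused to maltose binding protein made in E. coli; potency of compounds blocking POS-1 binding to fluorescent RNA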
# T4 sequence (G5EF15 whole entry): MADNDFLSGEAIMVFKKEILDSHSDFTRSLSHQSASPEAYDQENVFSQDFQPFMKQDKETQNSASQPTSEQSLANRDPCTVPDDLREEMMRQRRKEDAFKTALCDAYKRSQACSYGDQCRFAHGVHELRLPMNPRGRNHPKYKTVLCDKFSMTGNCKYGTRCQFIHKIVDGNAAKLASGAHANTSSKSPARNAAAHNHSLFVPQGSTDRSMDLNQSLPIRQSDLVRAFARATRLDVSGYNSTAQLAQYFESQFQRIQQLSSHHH
# [7] = target: T5, Zinc finger protein mex-5 (Caenorhabditis elegans, UniProt Q9XUB2); experiment: MEX-5/TCR-2 RNA interaction inhibitors, dose response, biochemical, C. elegans, fluorescence polarization (AID 1960)
# T5 sequence (Q9XUB2 whole entry): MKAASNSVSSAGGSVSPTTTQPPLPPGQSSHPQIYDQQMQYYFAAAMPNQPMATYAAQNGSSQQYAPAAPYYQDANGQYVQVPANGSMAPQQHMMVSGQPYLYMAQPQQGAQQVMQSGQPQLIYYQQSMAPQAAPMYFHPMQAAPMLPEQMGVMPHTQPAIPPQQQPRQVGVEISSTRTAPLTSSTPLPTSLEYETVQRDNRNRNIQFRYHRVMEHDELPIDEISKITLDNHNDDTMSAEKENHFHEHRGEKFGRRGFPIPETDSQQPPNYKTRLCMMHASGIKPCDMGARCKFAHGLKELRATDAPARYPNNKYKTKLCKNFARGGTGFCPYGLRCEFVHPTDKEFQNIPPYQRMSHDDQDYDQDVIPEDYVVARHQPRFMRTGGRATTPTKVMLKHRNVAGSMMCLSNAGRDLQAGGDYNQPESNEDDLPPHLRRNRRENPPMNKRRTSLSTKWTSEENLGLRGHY
# [8] = target: T6, Serine/threonine-protein phosphatase (Candida dubliniensis (strain CD36 / CBS 7987 / NCPF 3949 / NRRLY-17841) (Yeast), UniProt B9W6M3); experiment: calcineurin pathway inhibitors in yeast reporter, dose response, S. cerevisiae, CDRE-lacZ, luminescence, secondary (AID 2388); format: functional, cell-based;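 further: yeast reporter cells carrying a calcineurin-responsive lacZ construct stimulated with calcium chloride; luminescent beta-galactosidase reporter signal in whole cells rather than isolated phosphatase activity; potency for inhibition where a drop in reporter signal means calcineurin blockade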
# T6 sequence (B9W6M3 whole entry): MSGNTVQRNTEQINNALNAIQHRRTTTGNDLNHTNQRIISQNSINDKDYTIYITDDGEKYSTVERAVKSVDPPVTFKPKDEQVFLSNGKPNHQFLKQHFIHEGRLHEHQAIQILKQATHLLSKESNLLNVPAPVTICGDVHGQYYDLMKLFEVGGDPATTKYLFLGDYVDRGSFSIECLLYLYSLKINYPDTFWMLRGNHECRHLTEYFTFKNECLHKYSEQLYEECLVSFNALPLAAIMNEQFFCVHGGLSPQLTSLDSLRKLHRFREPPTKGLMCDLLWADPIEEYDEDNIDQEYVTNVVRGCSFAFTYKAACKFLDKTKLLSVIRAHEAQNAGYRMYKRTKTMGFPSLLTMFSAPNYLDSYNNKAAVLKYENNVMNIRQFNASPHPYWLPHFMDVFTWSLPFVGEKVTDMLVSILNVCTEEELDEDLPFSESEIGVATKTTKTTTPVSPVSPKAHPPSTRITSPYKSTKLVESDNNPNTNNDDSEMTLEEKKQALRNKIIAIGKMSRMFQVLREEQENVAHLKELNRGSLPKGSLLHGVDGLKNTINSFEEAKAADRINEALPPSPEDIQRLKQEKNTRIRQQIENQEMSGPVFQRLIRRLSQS
# [9] = NIH-3T3 fibroblast cytotoxicity, dose response, cytotoxicity control, cell-based, fluorescence, Alamar Blue, secondary assay (AID 2327); format: functional;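 further: NIH-3T3 mouse fibroblasts cultured with fluconazole at 8 µg/mL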
# [10] = target: Genome polyprotein (dengue virus type 2, UniProt P29990); experiment: Dengue-2 NS5 methyltransferase inhibitors, primary screen, biochemical, confirmation dose response (AID 588689); format: functional
# [11] = target: ATP-dependent molecular chaperone HSP82 (Candida albicans (strain WO-1) (Yeast), UniProt C4YTQ8); experiment: loss of DOC-induced GRE-beta-galactosidase reporter signal, dose response, Hsp90 inhibitor project, S. cerevisiae, luminescence (AID 2400); format: functional, cell-based;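 further: beta-galactosidase luminescence from glucocorticoid response element reporter as proxy for Hsp90 function; inhibitor potency where signal loss means Hsp90 inhibition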
# [12] = C. albicans growth with fluconazole, confirmation, fluorescence, retest (AID 2467); format: functional, cell-based
# [13] = target: T7, High affinity choline transporter 1 (Homo sapiens, UniProt Q9GZV3); experiment: CHT inhibitors, dose response, cell-based, 5-point CRC, membrane potential dye (AID 504840); format: functional
# T7 sequence (Q9GZV3 whole entry): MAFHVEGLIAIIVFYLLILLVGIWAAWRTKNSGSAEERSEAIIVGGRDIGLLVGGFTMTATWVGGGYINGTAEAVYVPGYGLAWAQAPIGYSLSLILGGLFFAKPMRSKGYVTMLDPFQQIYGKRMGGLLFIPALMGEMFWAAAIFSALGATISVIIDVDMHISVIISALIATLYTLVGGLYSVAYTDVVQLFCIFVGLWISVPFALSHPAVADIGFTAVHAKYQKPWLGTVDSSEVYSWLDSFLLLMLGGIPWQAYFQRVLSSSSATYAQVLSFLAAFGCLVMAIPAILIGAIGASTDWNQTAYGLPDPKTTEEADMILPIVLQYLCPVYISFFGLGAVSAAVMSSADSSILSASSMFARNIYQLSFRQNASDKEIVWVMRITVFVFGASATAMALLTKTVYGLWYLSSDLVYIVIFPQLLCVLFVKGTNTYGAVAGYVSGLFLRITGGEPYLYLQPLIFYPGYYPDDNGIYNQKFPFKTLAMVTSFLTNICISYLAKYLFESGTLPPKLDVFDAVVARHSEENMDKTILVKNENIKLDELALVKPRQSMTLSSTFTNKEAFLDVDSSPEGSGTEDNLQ
# [14] = HepG2 cell cytotoxicity, dose response, cytotoxicity control for non-replicating M. tuberculosis project (AID 489018); format: functional; settings: Mycobacterium tuberculosis
# [15] = THP-1 cell cytotoxicity, dose response, cytotoxicity control for non-replicating M. tuberculosis project (AID 489025); format: functional
# [16] = cells; format: functional
# [17] = Vero E6 cell cytotoxicity, dose response, cytotoxicity control for non-replicating M. tuberculosis project, secondary assay (AID 492998); format: functional, VeroE6; settings: Vero C1008
# [18] = target: T8, Estrogen receptor (Homo sapiens, UniProt P03372);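 further: potency for inhibiting coactivator peptide recruitment to the receptor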
# T8 sequence (P03372 whole entry): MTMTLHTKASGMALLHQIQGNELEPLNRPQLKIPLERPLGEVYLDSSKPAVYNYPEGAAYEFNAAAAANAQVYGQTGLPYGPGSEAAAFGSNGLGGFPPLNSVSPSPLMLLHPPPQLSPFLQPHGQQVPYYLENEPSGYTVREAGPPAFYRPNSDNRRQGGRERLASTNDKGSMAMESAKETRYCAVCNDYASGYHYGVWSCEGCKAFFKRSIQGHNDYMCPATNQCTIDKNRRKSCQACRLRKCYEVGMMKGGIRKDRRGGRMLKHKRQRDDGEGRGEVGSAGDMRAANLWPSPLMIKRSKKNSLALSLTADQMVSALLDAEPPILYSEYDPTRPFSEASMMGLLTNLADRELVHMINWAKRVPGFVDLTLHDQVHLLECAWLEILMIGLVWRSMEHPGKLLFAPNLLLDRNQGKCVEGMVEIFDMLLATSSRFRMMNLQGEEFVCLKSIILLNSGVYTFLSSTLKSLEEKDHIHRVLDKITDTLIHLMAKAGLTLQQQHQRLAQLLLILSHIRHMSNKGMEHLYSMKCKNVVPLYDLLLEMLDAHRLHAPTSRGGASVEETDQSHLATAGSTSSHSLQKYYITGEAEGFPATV
# Genome polyprotein, sequence (P29990 2492-3391 limits assumed): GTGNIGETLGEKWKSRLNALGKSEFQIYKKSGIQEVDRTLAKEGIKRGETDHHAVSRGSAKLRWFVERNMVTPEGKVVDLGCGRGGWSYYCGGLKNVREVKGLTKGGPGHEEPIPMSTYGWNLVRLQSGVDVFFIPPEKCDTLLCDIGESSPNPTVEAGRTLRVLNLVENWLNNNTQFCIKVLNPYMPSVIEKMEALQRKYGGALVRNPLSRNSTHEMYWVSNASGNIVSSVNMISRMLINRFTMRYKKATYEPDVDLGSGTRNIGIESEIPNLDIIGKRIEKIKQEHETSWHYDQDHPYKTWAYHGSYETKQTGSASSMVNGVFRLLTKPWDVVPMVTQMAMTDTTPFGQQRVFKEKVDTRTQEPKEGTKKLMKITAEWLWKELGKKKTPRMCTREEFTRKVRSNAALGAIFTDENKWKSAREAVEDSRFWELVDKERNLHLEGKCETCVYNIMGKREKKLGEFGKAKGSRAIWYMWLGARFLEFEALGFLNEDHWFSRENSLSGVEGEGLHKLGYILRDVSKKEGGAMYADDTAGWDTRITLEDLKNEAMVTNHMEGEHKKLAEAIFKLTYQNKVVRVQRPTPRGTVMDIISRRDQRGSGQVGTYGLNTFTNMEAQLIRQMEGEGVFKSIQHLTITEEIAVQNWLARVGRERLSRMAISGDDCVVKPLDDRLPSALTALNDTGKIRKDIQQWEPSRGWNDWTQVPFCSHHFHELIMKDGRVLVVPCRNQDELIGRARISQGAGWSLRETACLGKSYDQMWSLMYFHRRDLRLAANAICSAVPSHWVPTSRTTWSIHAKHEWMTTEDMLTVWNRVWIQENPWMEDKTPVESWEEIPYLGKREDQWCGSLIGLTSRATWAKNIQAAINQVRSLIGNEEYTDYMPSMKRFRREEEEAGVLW
# ATP-dependent molecular chaperone HSP82, sequence (C4YTQ8 whole entry): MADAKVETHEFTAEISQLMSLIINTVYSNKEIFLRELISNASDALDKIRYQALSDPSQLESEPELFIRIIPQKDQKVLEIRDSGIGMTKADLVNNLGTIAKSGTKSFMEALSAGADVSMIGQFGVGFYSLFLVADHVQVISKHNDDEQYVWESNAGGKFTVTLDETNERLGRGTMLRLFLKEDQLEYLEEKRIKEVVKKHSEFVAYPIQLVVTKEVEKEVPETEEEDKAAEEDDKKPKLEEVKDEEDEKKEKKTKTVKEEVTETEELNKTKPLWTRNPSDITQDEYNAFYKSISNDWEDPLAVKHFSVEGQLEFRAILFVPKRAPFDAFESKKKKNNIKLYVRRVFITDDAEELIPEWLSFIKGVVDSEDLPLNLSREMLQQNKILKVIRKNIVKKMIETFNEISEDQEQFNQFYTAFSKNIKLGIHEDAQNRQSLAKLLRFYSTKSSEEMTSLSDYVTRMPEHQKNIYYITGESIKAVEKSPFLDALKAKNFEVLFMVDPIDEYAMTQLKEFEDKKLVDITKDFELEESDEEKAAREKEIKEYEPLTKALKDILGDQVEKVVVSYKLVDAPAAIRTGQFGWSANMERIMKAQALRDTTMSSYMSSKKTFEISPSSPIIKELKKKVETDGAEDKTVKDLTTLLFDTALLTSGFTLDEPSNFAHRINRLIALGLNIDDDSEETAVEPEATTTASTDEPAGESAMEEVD
compound,measurement,setting,value
CCOC(=O)c1c(NC(=O)C2C3C=CC(C3)C2(C)C(=O)O)sc2c1CCCC2 (stereo not drawn),IC50,[1],8.1 µM (active)
same,IC50,[2],16.1 µM (active)
COc1ccc(NC(=O)Nc2ccc3c(c2)CC(=O)N([C@H](C)CO)C[C@@H](C)[C@@H](CN(C)Cc2ccc(C(=O)Nc4ccccc4N)cc2)O3)cc1,AC50,[3],2.16 µM (active)
CCCCN1CC(=O)N2[C@@H]3c4cc(Br)ccc4OC[C@@H]3[C@H](C(=O)OCC)[C@]2(C)C1=O,EC50,[4],39.6 µM (inactive)
same,EC50,[5],> 99 µM (inactive)
CC(=O)c1sc2nc(-c3cccs3)cc(C(F)(F)F)c2c1N,EC50,[6],45.9 µM (active)
same,EC50,[4],22.3 µM (inactive)
same,EC50,[7],> 300 µM (not active)
same,EC50,[5],> 99 µM (inactive)
CCOC(=O)[C@H]1[C@H]2COc3ccccc3[C@@H]2N2C(=O)CN(Cc3ccc(C)cc3)C(=O)[C@@]12C,EC50,[4],> 99 µM (inactive)
same,EC50,[5],> 99 µM (inactive)
O=C(NCc1ccccc1)c1sc(=S)n2c1[nH]c(=O)c1ccccc12,EC50,[8],> 180 µM (inactive)
same,EC50,[9],> 150 µM (inactive)
same,IC50,[10],77 µM (active)
same,EC50,[11],6.61 µM (active)
same,EC50,[12],0.706 µM (active)
same,IC50,[13],22 µM (active)
CCOC(=O)Cc1csc(NC(=O)c2c(O)c3ccccc3n(CCC(C)C)c2=O)n1,CC50,[14],> 20 µM (active)
same,CC50,[15],15.2 µM (active)
same,IC50,[16],2.08 µM (active)
same,CC50,[17],8.56 µM (active)
COc1ccc(OCCC(=O)OCC(=O)NCc2ccco2)cc1,IC50,[18],33.3 µM (not active)
same,IC50,[2],9.12 µM (active)
